The results in this text go back to patent US10150737B2, “Compounds for controlling arthropods” (priority 2013, dated 2018).

For data set [1], the system named is Boophilus microplus. In words: Boophilus microplus - injection test. The class given is in vivo. The conditions noted are these: application rate 20 μg/animal, injection into engorged adult female ticks, after 7 days. The procedure, abridged: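 Five engorged adult female cattle ticks each received a 1 μl abdominal injection of compound solution in dimethyl sulphoxide. Fertile egg laying was assessed at 7 days, with doubtful eggs incubated about 42 days until hatch. 0% efficacy means all eggs fertile.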

For data set [2], the system named is Ctenocephalides felis. In words: Ctenocephalides felis - in vitro contact tests with adult cat fleas. It is filed as in vivo. As to conditions: application rate 5 μg/cm2 (=500 g/ha); after 48 h; fleas dead or moribund. The procedure, abridged: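 Efficacy, as percentage of fleas dead or moribund, was scored at 48 h by knocking fleas to the tube base. Exposure was by contact with a dried acetone film of compound at 5 μg/cm^2 area dose; 5–10 adults per tube, room temperature, ambient humidity.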

In data set [3] the test system is Myzus persicae. The data set can be described thus: Myzus persicae - spray test. It is filed as in vivo. As to conditions: Chinese cabbage leaf discs, after 6 days. The procedure: Solvent: 78 parts by weight of acetone and 1.5 parts by weight of dimethylformamide
Emulsifier: alkylaryl polyglycol ether
To produce an appropriate active ingredient formulation, 1 part by weight of active ingredient is dissolved using the specified parts by weight of solvent and made up with water containing an emulsifier concentration of 1000 ppm until the desired concentration is attained. To produce further test concentrations, the preparation is diluted with emulsifier-containing water.
Discs of Chinese cabbage leaves (Brassica pekinensis) infested by all stages of the green peach aphid (Myzus persicae) are sprayed with an active ingredient formulation of the desired concentration.
After 6 days, efficacy in % is determined. 100% means that all the aphids have been killed; 0% means that none of the aphids have been killed.

The subject of data set [4] is Musca domestica. In words: Musca domestica test. It is filed as in vivo. As to conditions: application rate 100 ppm; adult houseflies; after 2 days. The essentials:
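10 adult flies per vessel; sugar-solution sponge dosed with active ingredient formulation (DMSO concentrate diluted in water to desired concentration). Read-out: % kill at 2 days.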

The test system of data set [5] is Lucilia cuprina. The data set can be described thus: Lucilia cuprina test. It is filed as in vivo. As to conditions: application rate 100 ppm; L1 larvae; after 2 days. The procedure, abridged:
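Mortality (%) of first-instar blowfly larvae, about 20 per vessel, recorded 2 days after exposure to compound-treated minced horsemeat. Compound dissolved in dimethyl sulphoxide, then water-diluted to the desired concentration.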

Data set [6] relates to Ctenocephalides felis. The data set can be described thus: Ctenocephalides felis - oral test. It is filed as in vivo. As to conditions: application rate 100 ppm in citrated cattle blood; after 2 days. The procedure, abridged: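 Roughly 20 unfed adult C. felis imbibe compound-dosed citrated cattle blood (DMSO formulation) across parafilm from a cylinder above their gauze chamber; percentage mortality recorded at day 2.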

In data set [7] the test system is Spodoptera frugiperda. The data set can be described thus: Spodoptera frugiperda - spray test. The conditions noted are these: caterpillars on maize leaf discs, after 7 days. It is filed as in vivo. The procedure, abridged: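 Percent mortality of Spodoptera frugiperda caterpillars scored 7 days after placing them on dried maize leaf discs sprayed at the desired concentration. Spray formulation: compound dissolved in acetone/dimethylformamide, made up with water containing 1000 ppm emulsifier.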

In data set [8] the test system is Boophilus microplus Parkhurst strain, SP-resistant. The data set can be described thus: Boophilus microplus - dip test. The conditions noted are these: application rate 100 ppm; dip of engorged adult female ticks; after 7 days. The class given is in vivo. The procedure: Test animals: cattle ticks (Boophilus microplus) Parkhurst strain, SP-resistant
Solvent: dimethyl sulphoxide
10 mg of active ingredient are dissolved in 0.5 ml of dimethyl sulphoxide. For the purpose of producing a suitable formulation, the active ingredient solution is diluted with water to the concentration desired in each case.
This active ingredient formulation is pipetted into tubes. 8-10 adult engorged female cattle ticks (Boophilus microplus) are transferred into a further tube with holes. The tube is immersed into the active ingredient formulation, and all the ticks are completely wetted. After the liquid has run out, the ticks are transferred on filter discs into plastic dishes and stored in a climate-controlled room.
Efficacy is assessed after 7 days by laying of fertile eggs. Eggs which are not visibly fertile are stored in a climate-controlled cabinet until the larvae hatch after about 42 days. An efficacy of 100% means that none of the ticks has laid any fertile eggs; 0% means that all the eggs are fertile.

In data set [9] the test system is Phaedon cochleariae. The data set can be described thus: Phaedon cochleariae - spray test. It is filed as in vivo. The conditions noted are these: larvae on Chinese cabbage leaf discs, after 7 days. The essentials:
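Mortality of mustard beetle larvae was scored as % at day 7 on Brassica pekinensis leaf discs. Discs had been treated by spraying at the desired concentration, using an acetone/dimethylformamide solution diluted in water with 1000 ppm alkylaryl polyglycol ether, and dried before larvae were added.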

Data set [10] is described as follows: logP determination by HPLC on a reversed-phase column (C18). It is filed as physicochemical. The conditions noted are these: for logP^a): HPLC-MS method a); for log P: HPLC-MS.
Data set [11] has as its system Tetranychus urticae. The data set can be described thus: Tetranychus urticae - spray test, OP-resistant. The class given is in vivo. As to conditions: bean leaf discs, after 6 days. The procedure, abridged: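 Mortality (%) read on day 6 after spraying Phaseolus vulgaris leaf discs carrying all mite stages with formulations at the desired concentration. Formulation: active ingredient in acetone plus dimethylformamide, made up with emulsifier-containing water (1000 ppm alkylaryl polyglycol ether).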

[12] abbreviates: reversed-phase column (C18), Table I-T3.

Turning to `Cc1cc(C(F)(C(F)(F)F)C(F)(F)F)cc(C)c1-n1cc(-c2cnc(C)c(C(=O)N(C)C3(C#N)CC3)c2)cn1` [I-T3-115], the “efficacy (laying of fertile eggs)” value in data set [1] and in [8] was 100% in each case. For the same compound, the efficacy in [2], in data set [3] (application rate 100 g/ha), in [7] (application rate 500 g/ha), in data set [9] (application rate 500 g/ha) and in data set [11] (application rate 500 g/ha) was 100% in each case. Moreover, the “efficacy (kill)” value in [4], in data set [5] and in data set [6] was 100% throughout. In addition, in data set [10] (reversed-phase column (C18)), the “logP^a)” value is 3.8. Besides, the “log P” value in [10] (setting [12]) is listed as 3.8.

As for `CCc1cc(C(F)(C(F)(F)F)C(F)(F)F)ccc1-n1cc(-c2ccc(Cl)c(C(=O)NC3CC3)c2)cn1` [I-T3-39], the “efficacy (laying of fertile eggs)” value in data set [1] and in data set [8] was 100% throughout. Besides, the efficacy in [3] (application rate 100 g/ha) was 90%; in [7] (application rate 100 g/ha), 100%; in data set [9] (application rate 100 g/ha), 100%; in data set [11] (application rate 100 g/ha), 100%. The “efficacy (kill)” value in data set [5] and in [6] was 100% throughout. Moreover, the “logP^a)” value in data set [10] and in [10] (setting [12]) was 4.6 each time.

Turning to `O=C(NC1CC1)c1cc(-c2cnn(-c3c(F)cc(C(F)(F)F)cc3F)c2)ccc1Cl` [I-T3-48, 2-chloro-N-cyclopropyl-5-[1-[2,6-difluoro-4-(trifluoromethyl)phenyl]pyrazol-4-yl]benzamide], the pest or weed control at 0.02 mg in [1] (Rhipicephalus microplus, 168 h, read-out: efficacy (laying of fertile eggs)) worked out at 100%. The “efficacy (kill)” value in [4] was 100%. In addition, the “efficacy (laying of fertile eggs)” value in [8] was 100%.

In the case of `Cc1ncc(-c2cnn(-c3c(Cl)cc(C(F)(C(F)(F)F)C(F)(F)F)cc3Cl)c2)cc1C(=O)N(C)C1CC1` [I-T3-133], the “efficacy (laying of fertile eggs)” value in data set [1] and in data set [8] was 100% in each case. For the same compound, the efficacy in data set [2], in data set [7] (application rate 100 g/ha), in data set [9] (application rate 100 g/ha) and in [11] (application rate 100 g/ha) was 100% throughout. Moreover, the “efficacy (kill)” value in data set [4], in data set [5] and in [6] was 100% each time. In addition, the “logP^a)” value in [10] (reversed-phase column (C18)) amounted to 3.7. For the same compound, the “log P” value in data set [10] (setting [12]) amounted to 3.7.

`CN(C(=O)c1cc(-c2cnn(-c3c(Cl)cc(C(F)(C(F)(F)F)C(F)(F)F)cc3C(F)(F)F)c2)cnc1Cl)C1CC1` [I-T3-113]: the “efficacy (laying of fertile eggs)” value in [1] and in data set [8] was 100% throughout. Also, the efficacy in data set [3] (application rate 100 g/ha), in data set [7] (application rate 500 g/ha), in data set [9] (application rate 500 g/ha) and in data set [11] (application rate 500 g/ha) was 100% in each case. Besides, the “efficacy (kill)” value in data set [4], in data set [5] and in data set [6] was 100% each time. Also, the “logP^a)” value in [10] (reversed-phase column (C18)) is recorded as 4.0. In addition, the “log P” value in [10] (setting [12]) amounted to 4.0.

On to `CN(C(=O)c1cc(-c2cnn(-c3c(Cl)cc(C(F)(F)F)cc3Cl)c2)cnc1Cl)C1CC1` [I-T3-99], for which the “efficacy (laying of fertile eggs)” value came to 100% in [1] and 90% in data set [8]. Further, the efficacy in data set [2], in data set [3] (application rate 100 g/ha), in data set [7] (application rate 100 g/ha), in data set [9] (application rate 100 g/ha) and in [11] (application rate 100 g/ha) was 100% each time. Moreover, the figures for the “efficacy (kill)” value in data set [4], in data set [5] and in data set [6] were 90%, 100% and 100%, respectively. The “logP^a)” value in data set [10] came out at 3.5. The log partition coefficient (log P) in data set [10] (setting [12]) was determined as 3.5.

As to `Cc1ncc(-c2cnn(-c3c(Cl)cc(C(F)(C(F)(F)F)C(F)(F)F)cc3C(F)(F)F)c2)cc1C(=O)N(C)C1CC1` [I-T3-130], the “efficacy (laying of fertile eggs)” value in data set [1] and in data set [8] was 100% in each case. Also, the efficacy in data set [2], in data set [3] (application rate 100 g/ha), in data set [7] (application rate 100 g/ha), in data set [9] (application rate 100 g/ha) and in data set [11] (application rate 100 g/ha) was 100% in each case. Moreover, the “efficacy (kill)” value in data set [4], in data set [5] and in data set [6] was 100% in each case. The “logP^a)” value in [10] (reversed-phase column (C18)) worked out at 3.8. The “log P” value in data set [10] (setting [12]) amounted to 3.8.

Take `Cc1cc(C(F)(C(F)(F)F)C(F)(F)F)cc(C)c1-n1cc(-c2cnc(C)c(C(=O)N(C)C3CC3)c2)cn1` [I-T3-120]: the “efficacy (laying of fertile eggs)” value in data set [1] and in [8] was 100% each time. Besides, the efficacy in data set [2] is recorded as 100%; in data set [3] (application rate 100 g/ha), 100%; in [3] (application rate 500 g/ha), 90%; in data set [7] (application rate 500 g/ha) it was 100%; in data set [9] (application rate 500 g/ha), 100%; in [11] (application rate 500 g/ha) it was 100%. Besides, the “efficacy (kill)” value in data set [4], in data set [5] and in data set [6] was 100% throughout. Further, the “logP^a)” value in data set [10] (reversed-phase column (C18)) amounted to 3.6. Further, the “log P” value in data set [10] (setting [12]) stood at 3.6.

Take `Cc1cc(C(F)(C(F)(F)F)C(F)(F)F)cc(C(F)(F)F)c1-n1cc(-c2cnc(C)c(C(=O)N(C)C3CC3)c2)cn1` [I-T3-118]: the “efficacy (laying of fertile eggs)” value in data set [1] and in [8] was 100% throughout. For the same compound, the efficacy came to 100% in [2]; 100% in data set [3] (application rate 100 g/ha); 100% in data set [7] (application rate 500 g/ha); 100% in data set [9] (application rate 500 g/ha); 90% in [11] (application rate 500 g/ha). The “efficacy (kill)” value in data set [4], in data set [5] and in [6] was 100% each time. Moreover, in [10] (reversed-phase column (C18)), the “logP^a)” value is 3.8. Also, the “log P” value in data set [10] (setting [12]) worked out at 3.8.

By log P is commonly meant the decadic logarithm of the partition coefficient of the neutral form, usually between octanol and water. A higher log P goes with a more lipophilic compound.
